The results in this text go back to US20240002379A1, “ASYMMETRIC CONJUGATE COMPOUNDS” (Pheon Therapeutics Ltd., priority 2016, published 2024).

Read-outs that look alike come from different tables or passages of the source.

For assay [1], the system named is linear double-stranded HexARev DNA fragment. As to the kind of experiment: DNA cleavage assay, HexARev fragment. The assay is classed as biochemical. The following applies: ligand concentration 10 μM and 100 nM (FIG. 16). The method, then: The ability of a further series of compounds 13, 42, 59, 99 and the PBD dimer Talirine to cross-link DNA was determined using an assay involving a linear double-stranded HexARev fragment (FIG. 15).
The ability of 13 and of a series of compounds to cleave double-stranded DNA was investigated using a modification of the previously established DNA footprinting assay (34). Following an overnight incubation of the ligand-DNA complexes, the mixture was mixed with strand separation buffer containing 10 mM EDTA, 10 mM NaOH, 0.1% bromophenol blue, 80% formamide and incubated at 100° C. for 3 min. The mixture was then immediately cooled on ice and run on an 8% denaturing gel. […] Using the GA marker, these additional bands were identified as cleavage products produced by 13 at certain A sites of the DNA fragment.
The preparation of the TyrT DNA fragment (FIG. 8) and HexARev DNA fragment (FIG. 15) have been previously described (34). Briefly, the sequence which had been cloned into the BamHI site of pUC18 was obtained by cutting with HindIII and EcoRI. Radiolabelled DNA fragments were prepared by filling in the 3′-end of the HindIII site with [α-^32P]dATP using Klenow DNA polymerase (exo-).
The radiolabelled DNA fragment was separated from the remainder of the plasmid DNA on a 6% non-denaturing polyacrylamide gel. The gel (20 cm long, 0.3 mm thick) was run at 400 V in 1×TBE running buffer for about 1-2 h, until the bromophenol blue had run most of the way down the gel. The glass plates were separated and the position of the labelled DNA fragment was established by short (1 min) exposure to an X-ray film. The relevant band was then cut from the gel and the radiolabelled DNA eluted by adding 300 μL 10 mM Tris-HCl, pH 7.5 containing 0.1 mM EDTA and gently agitating overnight at room temperature. The eluted DNA was finally precipitated with ethanol and re-suspended in a suitable volume of 10 mM Tris-HCl, pH 7.5 containing 0.1 mM EDTA buffer so as to give at least 10 counts per second/μL on a hand-held Geiger counter. With fresh plasmid and α-^32P-dATP this process typically generated about 150 μL of radiolabelled fragment DNA. The absolute concentration of the DNA is not important, and it is typically lower than 10 nM.
Compounds such as 13 were synthesised as described above and the PBD dimer Talirine was obtained from Aurum Pharmatech LLC. Stock solution was prepared by dissolving the ligands in DMSO to give a concentration of 10 mM. From this stock solution, working solutions of the desired concentration were prepared by diluting with 10 mM Tris-HCl, pH 7.5 containing 10 mM NaCl.
Radiolabelled DNA (1.5 μL) was mixed with 1.5 μL ligand solution of various concentrations (10 μM-10 nM) and incubated overnight at 37° C.
Labelled DNA (1.5 μL) was mixed with 20 μL sterile water and 5 μL of denaturing loading solution (80% formamide containing 10 mM EDTA, 10 mM NaOH, 0.01% bromophenol blue). The sample was then incubated at 100° C. for 20 min with the micro-centrifuge tube cap open to allow evaporation.
Loading solution (4.5 μL) was added to samples from Section 2.1. The digestion products were boiled for 3 min at 100° C. and quickly cooled on ice prior to electrophoresis. Separation was performed on an 8% denaturing polyacrylamide gel (40 cm long, 0.3 mm thick) at 1500V for about 2 h until the dye reached the bottom of the gel. […]

Assay [2] has as its system FaDu (head and neck cancer) cell line. The experiment in a line: MTT cytotoxicity assay, FaDu. The assay is classed as cell-based. The following applies: Homo sapiens, MTT assay, 72 hour incubation. In a few lines:
(§1)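 Cells seeded at 1800/well in RPMI1640 + 10% FBS, adhered overnight, then exposed to compound 72 h at 37° C. Survival by MTT (500 μg/ml, 4 h), formazan in DMSO read at 540 nm, blank-corrected versus untreated wells; IC50 read from concentration–survival plot.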
A general note: Tetrazolium assays rely on reduction of a dye to a coloured formazan, in cell work by metabolically active cells.

A further assay concerns PC3 (prostate) cell line. As to the kind of experiment: MTT cytotoxicity assay, PC3. The assay is classed as cell-based. The conditions noted are these: MTT assay, 72 hour incubation, read-out: Cytotoxicity PC3 (nM, 72 hour). In a few lines:
as §1

As to `COc1cc2c(cc1OCCCC(=O)N1C[C@@H](CCl)c3c1cc(O)c1ccccc31)N=C[C@@H]1CCCCN1C2=O` [Compound 13, (S)-3-(4-((S)-1-(Chloromethyl)-5-hydroxy-1,2-dihydro-3H-benzo[e]indol-3-yl)-4-oxobutoxy)-2-methoxy-7,8,9,10-tetrahydrobenzo[e]-pyrido[1,2-a][1,4]diazepin-12(6aH)-one], the “cleavage of HexARev DNA fragment” value in assay [1] is reported as “cleave DNA”. The IC50 in assay [2] (read-out: Cytotoxicity FaDu (nM, 72 hour)) amounted to 1.17 nM; with PC3 (prostate) cell line, 1.43 nM.
In the case of `COc1cc2c(cc1OCc1cccc(CC(=O)N3C[C@@H](CCl)c4c3cc(O)c3ccccc43)c1)N=C[C@@H]1CCCCN1C2=O` [Compound 42, (S)-3-((3-(2-((S)-1-(Chloromethyl)-5-hydroxy-1,2-dihydro-3H-benzo[e]indol-3-yl)-2-oxoethyl)benzyl)oxy)-2-methoxy-7,8,9,10-tetrahydrobenzo[e]pyrido[1,2-a][1,4]diazepin-12(6aH)-one], the “cleavage of HexARev DNA fragment” value in assay [1] was “cleave DNA”. In addition, the IC50 was found to be 0.01 nM in assay [2] (read-out: IC50 value in FaDu) and 0.03 nM in the assay with PC3 (prostate) cell line.
